Assay in all cases: relative viability (nuclei count vs DMSO), 5 days (fraction); higher = more cells survive
Compound in assay [1]: CN(c1ncccc1CNc1nc(Nc2ccc3c(c2)CC(=O)N3)ncc1C(F)(F)F)S(C)(=O)=O
In short, it runs like this:
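Viability was read as treated-well nuclei divided by vehicle-well nuclei, using the median across plates. Lung cancer cell lines in 1536-well plates were kept overnight at 37 °C, pinned with five √10-spaced library-drug doses, and after 5 days were Hoechst-stained, imaged at 4× and counted in MetaXpress. Plates passed only with control CV below 25% and at least one doubling.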

Compound in assay [2]: CN(c1ncccc1CNc1nc(Nc2ccc3c(c2)CC(=O)N3)ncc1C(F)(F)F)S(C)(=O)=O + CC1(C)CCC(c2ccc(Cl)cc2)=C(CN2CCN(c3ccc(C(=O)NS(=O)(=O)c4ccc(N[C@H](CCN5CCOCC5)CSc5ccccc5)c(S(=O)(=O)C(F)(F)F)c4)cc3)CC2)C1 [Navitoclax] (partner 0.5 µM)
In short, it runs like this: (§1)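 One day after seeding in 1536-well plates, lung cancer cell lines were dosed by pin tool. Dosing was either single-drug or a fixed anchor-drug dose plus five library-drug doses (not always all listed) in √10 steps. After 5 days, nuclei were stained in one fix-and-stain step and counted on 4× images, and relative viability is the nuclei count of treated wells over that of vehicle wells, given as the median of duplicate plates.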

Compound in assay [3]: CN(c1ncccc1CNc1nc(Nc2ccc3c(c2)CC(=O)N3)ncc1C(F)(F)F)S(C)(=O)=O + Cc1cc(Nc2cc(N3CCN(C)CC3)nc(Sc3ccc(NC(=O)C4CC4)cc3)n2)n[nH]1 [Tozasertib] (partner 0.1 µM)
In a few lines: as §1

Compound in assay [4]: CN(c1ncccc1CNc1nc(Nc2ccc3c(c2)CC(=O)N3)ncc1C(F)(F)F)S(C)(=O)=O + N=C(N)NC(=N)NCCc1ccccc1 [Phenformin] (partner 250 µM)
In a few lines:
as §1

In the case of NCI-H596, the relative viability amounted to 0.977 in assay [1] (0.01 µM); 0.917 in assay [1] (0.03162 µM); 1.02 in assay [1] (0.1 µM); 0.886 in assay [1] (0.3162 µM); 0.94 in assay [1] (1 µM); 0.9 in assay [2] (first compound 0.01 µM). Further, the relative viability came out at 0.912 in assay [2] (first compound 0.03162 µM); 0.965 in assay [2] (first compound 0.1 µM); 0.86 in assay [2] (first compound 0.3162 µM); 0.675 in assay [2] (first compound 1 µM); 0.886 in assay [3] (first compound 0.01 µM); 0.938 in assay [3] (first compound 0.03162 µM). Moreover, the relative viability is 0.899 in assay [3] (first compound 0.1 µM); 0.813 in assay [3] (first compound 0.3162 µM); 0.632 in assay [3] (first compound 1 µM); 0.807 in assay [4] (first compound 0.01 µM); 0.745 in assay [4] (first compound 0.03162 µM); 0.657 in assay [4] (first compound 0.1 µM). Also, the relative viability in assay [4] (first compound 0.3162 µM) was determined as 0.611; in assay [4] (first compound 1 µM), 0.763.
NCI-H647: the relative viability in assay [1] (0.01 µM) worked out at 0.979; in assay [1] (0.03162 µM) it was 1.26; in assay [1] (0.1 µM), 1.02; in assay [1] (0.3162 µM), 0.889; in assay [1] (1 µM), 0.886; in assay [2] (first compound 0.01 µM), 1.16. The relative viability came out at 1.21 in assay [2] (first compound 0.03162 µM); 1.16 in assay [2] (first compound 0.1 µM); 1.04 in assay [2] (first compound 0.3162 µM); 1.07 in assay [2] (first compound 1 µM); 0.315 in assay [3] (first compound 0.01 µM); 0.224 in assay [3] (first compound 0.03162 µM). Further, the relative viability was 0.498 in assay [3] (first compound 0.1 µM); 0.353 in assay [3] (first compound 0.3162 µM); 0.248 in assay [3] (first compound 1 µM); 0.483 in assay [4] (first compound 0.01 µM); 0.689 in assay [4] (first compound 0.03162 µM); 0.616 in assay [4] (first compound 0.1 µM). For the same cell line, the relative viability in assay [4] (first compound 0.3162 µM) was 0.579; in assay [4] (first compound 1 µM), 0.401.
NCI-H727: the relative viability in assay [1] (0.01 µM) was 1; in assay [1] (0.03162 µM), 0.949; in assay [1] (0.1 µM), 0.87; in assay [1] (0.3162 µM), 1.02; in assay [1] (1 µM), 0.79; in assay [2] (first compound 0.01 µM), 0.429. For the same cell line, the relative viability is 0.438 in assay [2] (first compound 0.03162 µM); 0.435 in assay [2] (first compound 0.1 µM); 0.378 in assay [2] (first compound 0.3162 µM); 0.322 in assay [2] (first compound 1 µM); 0.675 in assay [3] (first compound 0.01 µM); 0.549 in assay [3] (first compound 0.03162 µM). Also, the relative viability in assay [3] (first compound 0.1 µM) was found to be 0.571; in assay [3] (first compound 0.3162 µM) it was 0.543; in assay [3] (first compound 1 µM), 0.52; in assay [4] (first compound 0.01 µM), 0.626; in assay [4] (first compound 0.03162 µM), 0.655; in assay [4] (first compound 0.1 µM), 0.389. Also, the relative viability in assay [4] (first compound 0.3162 µM) stood at 0.616; in assay [4] (first compound 1 µM), 0.444.
With NCI-H838, the relative viability in assay [1] (0.01 µM) is 1.01; in assay [1] (0.03162 µM), 1.03; in assay [1] (0.1 µM), 0.979; in assay [1] (0.3162 µM), 0.903; in assay [1] (1 µM), 0.808; in assay [2] (first compound 0.01 µM) it was 1.17. Also, the relative viability is 1.35 in assay [2] (first compound 0.03162 µM); 1.27 in assay [2] (first compound 0.1 µM); 1.02 in assay [2] (first compound 0.3162 µM); 0.851 in assay [2] (first compound 1 µM); 0.27 in assay [3] (first compound 0.01 µM); 0.336 in assay [3] (first compound 0.03162 µM). Moreover, the relative viability is 0.261 in assay [3] (first compound 0.1 µM); 0.272 in assay [3] (first compound 0.3162 µM); 0.19 in assay [3] (first compound 1 µM); 0.604 in assay [4] (first compound 0.01 µM); 0.671 in assay [4] (first compound 0.03162 µM); 0.575 in assay [4] (first compound 0.1 µM). The relative viability stood at 0.504 in assay [4] (first compound 0.3162 µM) and 0.396 in assay [4] (first compound 1 µM).
On to NCI-H1355, for which the relative viability in assay [1] (0.01 µM) came out at 1.03; in assay [1] (0.03162 µM), 1.03; in assay [1] (0.1 µM), 0.954; in assay [1] (0.3162 µM), 0.995; in assay [1] (1 µM), 0.948; in assay [2] (first compound 0.01 µM) it was 0.942. The relative viability in assay [2] (first compound 0.03162 µM) came out at 1.02; in assay [2] (first compound 0.1 µM), 0.968; in assay [2] (first compound 0.3162 µM), 0.846; in assay [2] (first compound 1 µM) it was 0.776; in assay [3] (first compound 0.01 µM), 0.538; in assay [3] (first compound 0.03162 µM) it was 0.513. The relative viability turned out to be 0.557 in assay [3] (first compound 0.1 µM); 0.496 in assay [3] (first compound 0.3162 µM); 0.501 in assay [3] (first compound 1 µM); 0.45 in assay [4] (first compound 0.01 µM); 0.442 in assay [4] (first compound 0.03162 µM); 0.449 in assay [4] (first compound 0.1 µM). Moreover, the relative viability was 0.406 in assay [4] (first compound 0.3162 µM) and 0.432 in assay [4] (first compound 1 µM).
Consider NCI-H1395, for which the relative viability is 0.94 in assay [1] (0.01 µM); 0.977 in assay [1] (0.03162 µM); 0.812 in assay [1] (0.1 µM); 1.01 in assay [1] (0.3162 µM); 0.988 in assay [1] (1 µM); 1.19 in assay [2] (first compound 0.01 µM). Besides, the relative viability turned out to be 1.25 in assay [2] (first compound 0.03162 µM); 1.04 in assay [2] (first compound 0.1 µM); 1.06 in assay [2] (first compound 0.3162 µM); 1.31 in assay [2] (first compound 1 µM); 0.724 in assay [3] (first compound 0.01 µM); 0.806 in assay [3] (first compound 0.03162 µM). For the same cell line, the relative viability in assay [3] (first compound 0.1 µM) came out at 0.784; in assay [3] (first compound 0.3162 µM) it was 0.856; in assay [3] (first compound 1 µM), 0.782; in assay [4] (first compound 0.01 µM) it was 0.455; in assay [4] (first compound 0.03162 µM) it was 0.463; in assay [4] (first compound 0.1 µM), 0.459. The relative viability in assay [4] (first compound 0.3162 µM) stood at 0.454; in assay [4] (first compound 1 µM) it was 0.417.
On to NCI-H1437, for which the relative viability in assay [1] (0.01 µM) came out at 0.994; in assay [1] (0.03162 µM), 1.02; in assay [1] (0.1 µM) it was 0.946; in assay [1] (0.3162 µM), 0.936; in assay [1] (1 µM), 0.877; in assay [2] (first compound 0.01 µM) it was 1.1. The relative viability in assay [2] (first compound 0.03162 µM) was determined as 1.09; in assay [2] (first compound 0.1 µM), 1.16; in assay [2] (first compound 0.3162 µM) it was 0.986; in assay [2] (first compound 1 µM), 0.968; in assay [3] (first compound 0.01 µM) it was 0.424; in assay [3] (first compound 0.03162 µM) it was 0.483. Moreover, the relative viability in assay [3] (first compound 0.1 µM) came out at 0.397; in assay [3] (first compound 0.3162 µM) it was 0.411; in assay [3] (first compound 1 µM), 0.355; in assay [4] (first compound 0.01 µM) it was 0.384; in assay [4] (first compound 0.03162 µM), 0.333; in assay [4] (first compound 0.1 µM) it was 0.284. Besides, the relative viability in assay [4] (first compound 0.3162 µM) was 0.298; in assay [4] (first compound 1 µM), 0.266.
